32 compounds from the Kinase Knowledgebase extract (Sharma et al. 2016) can be followed below.

In one assay the target is MAPK14 (human) (UniProt Q16539). As to the kind of experiment: In vitro Inhibition of TNF-alpha Production in PBMC Cells.
Another assay has as its system MAPK14 (BALB/cJ mice). As to the kind of experiment: In vivo Inhibition of LPS-induced TNF-alpha Production. Particulars: dose or concentration not given here.

MAPK14 (human), sequence (Q16539 whole entry, looked up): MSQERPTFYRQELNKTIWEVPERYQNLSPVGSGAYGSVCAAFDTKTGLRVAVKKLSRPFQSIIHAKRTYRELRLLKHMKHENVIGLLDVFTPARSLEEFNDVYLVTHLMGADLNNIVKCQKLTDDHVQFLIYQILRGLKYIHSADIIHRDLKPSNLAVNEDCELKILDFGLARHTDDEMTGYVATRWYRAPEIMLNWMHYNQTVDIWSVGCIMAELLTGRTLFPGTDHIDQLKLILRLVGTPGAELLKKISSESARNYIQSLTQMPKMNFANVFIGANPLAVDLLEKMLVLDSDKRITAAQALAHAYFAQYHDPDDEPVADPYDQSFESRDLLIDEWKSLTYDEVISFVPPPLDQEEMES

As to `COC(=O)c1c(-c2ccncc2)c(-c2ccc(F)cc2)cn1C`, the IC50 – broadly, the point on the concentration scale where inhibition reaches its midpoint – at MAPK14 (human) came to 55 nM. In the assay with MAPK14 (BALB/cJ mice), the inhibition (commonly the relative decrease from the control value, in per cent) is -56%. The corresponding values for `CCn1cc(-c2ccncc2)c(-c2ccc(F)cc2)c1CO` are 70 nM and 48%. As for `COC(=O)c1c(-c2ccc(F)cc2)c(-c2ccncc2)c(N2CCN(C(=O)OC(C)(C)C)CC2)n1C`, the IC50 at MAPK14 (human) is 4260 nM. In the case of `COC(=O)c1c(-c2ccc(F)cc2)c(-c2ccncc2)c(NCCN2CCNCC2)n1C`, in the assay on MAPK14 (BALB/cJ mice), the inhibition worked out at 77%. At MAPK14 (human), `COC(=O)c1c(-c2ccncc2)c(-c2ccc(F)cc2)c(Br)n1C` registered an IC50 of 180 nM. In the assay with MAPK14 (BALB/cJ mice), the inhibition was -6%. The corresponding values for `O=C1CCn2c(Br)c(-c3ccncc3)c(-c3ccc(F)cc3)c21` are 819 nM and 31%. The corresponding values for `Cn1cc(-c2ccncc2)c(-c2ccc(F)cc2)c1-c1cnco1` are 59 nM and 53%. Take `COC(=O)C1CCn2c(I)c(-c3ccncc3)c(-c3ccc(F)cc3)c2C1=O` (stereo unspecified): the inhibition with MAPK14 (BALB/cJ mice) turned out to be 15%. In turn, `Cn1c(C(=O)c2ccccc2)c(-c2ccc(F)cc2)c(-c2ccncc2)c1N1CCNCC1` gave an IC50 against MAPK14 (human) of 660 nM. As to `COC(=O)c1c(-c2ccc(F)cc2)c(-c2ccncc2)c(NCCN2CCSCC2)n1C`, the IC50 on MAPK14 (human) is 69 nM.

Turning to `CCOC(=O)c1[nH]cc(-c2ccncc2)c1-c1cccc(C(F)(F)F)c1`, at MAPK14 (human), the IC50 came to 96 nM. In the assay with MAPK14 (BALB/cJ mice), the inhibition was -8%. `COC(=O)c1c(-c2ccc(F)cc2)c(-c2ccncc2)c(C2=CCNCC2)n1C` yielded an IC50 against MAPK14 (human) of 72 nM. Moreover, the inhibition with MAPK14 (BALB/cJ mice) turned out to be 96%. The corresponding values for `OCc1[nH]cc(-c2ccc(F)cc2)c1-c1ccncc1` are 101 nM and -72%. The corresponding values for `CCNC(=O)N1CCN(c2c(-c3ccncc3)c(-c3ccc(F)cc3)c(C(=O)OC)n2C)CC1` are 2920 nM and -38%. For `Cn1c(CO)c(-c2ccc(F)cc2)c(-c2ccncc2)c1N1CCN(C(=O)OC(C)(C)C)CC1`, the inhibition in the assay with MAPK14 (BALB/cJ mice) is 83%. On MAPK14 (human), `COC(=O)C1CCn2cc(-c3ccncc3)c(-c3ccc(F)cc3)c2C1=O` (stereo unspecified) gave an IC50 of 326 nM. Besides, the inhibition with MAPK14 (BALB/cJ mice) is -9%. The corresponding values for `CCCc1[nH]cc(-c2ccc(F)cc2)c1-c1ccnc(N[C@@H](C)c2ccccc2)n1` are 10 nM and -19%. `Cn1cc(-c2ccncc2)c(-c2ccc(F)cc2)c1-c1ncc(-c2ccccc2)o1`: the IC50 against MAPK14 (human) worked out at 1030 nM. With `COC(=O)c1c(-c2ccc(F)cc2)c(-c2ccncc2)c(N2CCC(N)C2)n1C` (stereo unspecified), the IC50 at MAPK14 (human) was found to be 237 nM. For the same compound, the inhibition in the assay on MAPK14 (BALB/cJ mice) is 25%.

For `N#Cc1[nH]cc(-c2ccncc2)c1-c1ccc(F)cc1`, on MAPK14 (human), the IC50 worked out at 47 nM. The same measure, in the same setting: in the case of `CN(C)C(=O)c1c(-c2ccc(F)cc2)c(-c2ccncc2)c(N2CCNCC2)n1C` it was 120 nM. The compound `COC(=O)c1c(-c2ccc(F)cc2)c(-c2ccncc2)c(NCCN(C)C)n1C` gave an IC50 against MAPK14 (human) of 98 nM. Also, the inhibition in the assay on MAPK14 (BALB/cJ mice) was -43%. The corresponding values for `COC(=O)C1Cn2cc(-c3ccncc3)c(-c3ccc(F)cc3)c2C1=O` (stereo unspecified) are 29 nM and 44.7%. On MAPK14 (human), `COC(=O)c1c(-c2ccc(F)cc2)c(-c2ccncc2)c(N2CCN(C(C)C)CC2)n1C` showed an IC50 of 1980 nM. Consider `CCCc1c(-c2ccnc(SC)n2)c(-c2ccc(F)cc2)cn1CCCN(C)C`, for which the IC50 on MAPK14 (human) was determined as 148 nM. In the assay with MAPK14 (BALB/cJ mice), the inhibition is -37%. `COC(=O)c1c(-c2cccc(F)c2)c(-c2ccncc2)cn1C` gave a half-maximal inhibitory concentration (IC50) against MAPK14 (human) of 64 nM. `CNC(=O)c1c(-c2ccc(F)cc2)c(-c2ccncc2)c(N2CCNCC2)n1C`: the concentration for half-maximal inhibition (IC50) on MAPK14 (human) came to 106 nM. The inhibition in the assay on MAPK14 (BALB/cJ mice) was -7%.

Consider `COC(=O)c1c(-c2ccncc2)c(-c2ccc(F)cc2)c(C#CCCN2CCOCC2)n1C`, for which the IC50 against MAPK14 (human) came to 32 nM. The inhibition with MAPK14 (BALB/cJ mice) is -4%. The corresponding values for `Cn1cc(-c2ccc(F)cc2)c(-c2ccncc2)c1N1CCNCC1` are 15 nM and 75%. As to `Cn1cc(-c2ccncc2)c(-c2ccc(F)cc2)c1C(=O)NCC(=O)c1ccccc1`, the IC50 on MAPK14 (human) is 157 nM. The same measure, in the same setting: in the case of `COC(=O)c1c(-c2ccc(F)cc2)c(-c2ccncc2)c(N(C)CCN2CCSCC2)n1C` it was 183 nM. Consider `COCC#Cc1c(-c2ccc(F)cc2)c(-c2ccncc2)c(C(=O)OC)n1C`, for which the IC50 on MAPK14 (human) worked out at 443 nM. Moreover, the inhibition in the assay on MAPK14 (BALB/cJ mice) was -5%.
